Measurements as given in patent US12157749B2, “Borate-based drug and use thereof” (Chengdu Origin Biotechnology Limited Company, priority 2018, dated 2024).

What was measured:
Type in all cases: cell-based
[1] = tested on: human multiple myeloma cells KMS-11; test: Activity test on human multiple myeloma cells KMS-11 (CCK-8, GI50); settings: KMS-11 cells, 48 h incubation
Description: Cells KMS-11 (human multiple myeloma cells from JCRB ((Japanese Collection of Research Bioresources Cell Bank), AJCRB1179) were cultured to logarithmic growth phase in RPMI 1640 medium containing 10% fetal bovine serum at 37° C. and 5% CO2. The cells were inoculated into a 96-well culture plate in proper quantity per well. After being cultured at 37° C. and 5% CO2 for 24 h, solvent control DMSO or test compounds dissolved in DMSO were added to the cells, wherein the starting concentration of the test compound was 0.3 μM, and diluted 3-fold each time for a total of 6 times to obtain 6 concentration gradients. The cells were incubated with the test compounds at 37° C. and 5% CO2 for 48 h. CCK-8 reagent was added to each well and the cells were incubated at 37° C. for 2 h according to the reagent instructions, and the optical density value of each well was read with spectrophotometer at 450 nm wavelength.
The optical density value of the cell was set as Tz value when the drug had null action on the cell, which represented the cell value when the drug was added. The optical density value of the cells was set as C value after the cells were acted by solvent control DMSO for 48 h; and the optical density value of the cell was set as Ti value after the cells were acted by the test compounds for 48 h. According to the method proposed by NIH—NCI in the United States, the cell response to drugs was calculated as follows: [(Ti−Tz)/(C−Tz)]×100 when Ti≥Tz; [(Ti−Tz)/Tz]×100 when Ti<Tz. According to the above calculation, the GI50 value (the concentration of the test compound as required when the cell growth inhibition rate was […]) was calculated by using the 4-parameter logistic model in XLfit software.

[2] = tested on: human multiple myeloma cells MM.1S; test: Activity test on human multiple myeloma cells MM.1S (CCK-8, GI50); settings: MM1.S, MM.1S cells, 48 h incubation
Description: (§1) Cells RPMI-8226 (human multiple myeloma cells from ATCC (American type culture collection), ATCC CCL-155) and cells MM.1S (human multiple myeloma cells from ATCC (American type culture collection), ATCC CRL-2974) were cultured to logarithmic growth phase in RPMI 1640 medium containing 10% fetal bovine serum at 37° C. and 5% CO2. The cells were inoculated into 96-well culture plates in proper quantity per well. After culturing at 37° C. and 5% CO2 for 24 h, solvent control DMSO or test compounds dissolved in DMSO were added to the wells, wherein the starting concentration of the test compounds were […], and diluted 3-fold each time for a total of 6 times to obtain 6 concentration gradients. The cells were incubated together with the test compounds at 37° C. and 5% CO2 for 48 h. CCK-8 reagent was added to each well and the cells were incubated at 37° C. for 2 h according to the reagent instructions, and the optical density value of each well was read with spectrophotometer at 450 nm wavelength.
(§2) The optical density value of the cells was set as Tz value when the drugs had null action on the cell, which represented the cell value when the drugs were added. The optical density values of the cells were set as C value after the cells were acted by solvent control DMSO for 48 h; and the optical density values of the cell were set as Ti value after the cells were acted by the test compounds for 48 h. According to the method proposed by NIH—NCI in the United States, the cells' response to drugs was calculated as follows: [(Ti−Tz)/(C−Tz)]×100 when Ti≥Tz; [(Ti−Tz)/Tz]×100 when Ti<Tz. According to the above calculation, the GI50 value (the concentration of the test compound required when the cell growth inhibition rate was 50%) was calculated by using the 4-parameter logistic model in XLfit software.

[3] = tested on: human multiple myeloma cells RPMI-8226; test: Activity test on human multiple myeloma cells RPMI-8226 (CCK-8, GI50); settings: RPMI 8226 cells, 48 h incubation
Description: as §1, §2

CC(C)C[C@H](NC(=O)CNC(=O)c1cc(Br)ccc1F)B(O)O
GI50 [1]: 35.7 nM

CC(C)C[C@H](NC(=O)CNC(=O)c1cc(Br)ccc1F)B1OC(=O)c2ccccc2O1
GI50 [1]: 34.1 nM

Cc1ccc(F)c(C(=O)NCC(=O)N[C@@H](CC(C)C)B2OC(=O)C(CC(=O)O)(CC(=O)O)O2)c1
GI50 [1]: 90.5 nM

CC(C)C[C@H](NC(=O)CNC(=O)c1cc(F)ccc1F)B1OC(=O)C(CC(=O)O)(CC(=O)O)O1
GI50 [1]: 87.8 nM

CC(C)C[C@H](NC(=O)CNC(=O)c1cc(Br)ccc1Cl)B1OC(=O)C(CC(=O)O)(CC(=O)O)O1 [drawing 60]
GI50 [2]: 0.0133 µM
GI50 [3]: 0.0107 µM

CC(C)C[C@H](NC(=O)CNC(=O)c1cc(Br)ccc1F)B1OC(=O)C(CC(=O)O)(CC(=O)O)O1 [drawing 61]
GI50 [2]: 0.0112 µM
GI50 [3]: 0.012 µM

CC(C)C[C@H](NC(=O)CNC(=O)c1cc(C(F)(F)F)ccc1F)B1OC(=O)C(CC(=O)O)(CC(=O)O)O1 [drawing 62]
GI50 [2]: 0.026 µM
GI50 [3]: 0.0182 µM

CC(C)C[C@H](NC(=O)CNC(=O)c1cc(Cl)ccc1Cl)B1OC(=O)C(CC(=O)O)(CC(=O)O)O1 [drawing 63]
GI50 [2]: 0.0128 µM
GI50 [3]: 0.0122 µM

CC(C)C[C@H](NC(=O)CNC(=O)c1cc(F)ccc1Br)B1OC(=O)C(CC(=O)O)(CC(=O)O)O1 [drawing 64]
GI50 [2]: 0.012 µM
GI50 [3]: 0.0134 µM

CC(C)C[C@H](NC(=O)CNC(=O)c1cc(Br)ccc1F)B1OC(=O)C(CC(=O)O)(CC(=O)O)O1 [drawing 66]
GI50 [1]: 39.7 nM

CC(C)C[C@H](NC(=O)CNC(=O)c1cc(C(F)(F)F)ccc1F)B1OC(=O)C(CC(=O)O)(CC(=O)O)O1 [drawing 67]
GI50 [1]: 57.8 nM

CC(C)C[C@H](NC(=O)CNC(=O)c1cc(Br)ccc1F)B1OC(=O)C(c2ccccc2)O1 (stereo partly shown) [drawing 69]
GI50 [1]: 29.9 nM

CC(C)C[C@H](NC(=O)CNC(=O)c1cc(F)ccc1Br)B1OC(=O)C(CC(=O)O)(CC(=O)O)O1 [drawing 70]
GI50 [1]: 35.7 nM

CC(C)C[C@H](NC(=O)CNC(=O)c1cc(Cl)ccc1F)B1OC(=O)C(CC(=O)O)(CC(=O)O)O1 [drawing 71]
GI50 [1]: 59 nM
